# Assay results taken from US9662322B2 (TEVA PHARMACEUTICAL INDUSTRIES, LTD., priority 2014, dated 2017).
# Legend:
# [1] = test system: subjects with relapsing remitting multiple sclerosis (RRMS); test: ALLEGRO Phase III trial: MRI endpoints; type: in vivo, human
# Protocol: MRI related secondary endpoints were the cumulative number of GdE lesions at months 12 and 24; and the cumulative number of new T2 lesions (relative to previous scan) at months 12 and 24; MRI exploratory endpoints included percent change of brain volume using SIENA.
# Additional MRI methodological details are as follows: In all patients, MRI scans were performed at 0, 12, and 24 months. Before a site could enroll study participants they were required to image a volunteer patient with definite MS twice with repositioning according to a strict study imaging protocol using scanners with a minimum field strength of 1.5 T. Fast/turbo spin echo (repetition time [TR]=2200-3500 ms, echo time [TE]=14-50/90-120 ms, echo train length=2-7, slice thickness=3 mm, and contiguous axial slices=44) sequences were used to obtain proton density and T2-weighted images. High resolution pre-contrast 3D T1-weighted sequences (TR=8-15 ms, TE=3-5 ms, inversion time=1.1 s, number of slices 160, slice thickness 1.2 mm, flip angle [FA]=10-15, orientation sagittal) were acquired for quantification of brain atrophy. Finally, T1-weighted images (1.5 T scanners: conventional spin echo sequence; TR=600-650 ms, TE=10-20 ms, slice thickness=3 mm, and contiguous axial slices=44; 3.0 T scanners: 3D sequence; TR=5-9 ms, TE=2-5 ms, FA=15, slice thickness=3 mm, and contiguous axial slices=44) were obtained 5 minutes after injection of 0.1 mmol/kg of gadolinium. A series of axial, coronal, and sagittal images was obtained to create an axial reference scan for subsequent careful repositioning of each patient at the follow-up session. Axial slices were positioned to run parallel to a line joining the most inferioanterior and inferioposterior parts of the corpus callosum.
# Image quality was reviewed at the MRI-AC using predetermined criteria. The identification of GdE and T2-hyperintense lesions was done by consensus of two experienced observers. The number of total and new GdE lesions and new/enlarging T2-hyperintense lesions were counted. The identified lesions were then outlined by trained technicians using a semiautomated segmentation technique based on local thresholding (Jim 4.0; Xinapse System, Leicester, UK) and lesion volumes were calculated automatically. Percentage brain volume changes and cross-sectional normalized brain volumes were measured on […] T1-weighted images, with Structural Image Evaluation of Normalized Atrophy (SIENA) software and a cross-sectional method (SIENAX) (available from the FMRIB Software Library, Oxford University, Oxford, UK; http://www.fmrib.ox.ac.uk/analysis/research/siena/siena).
# Analyses of the secondary MRI endpoints of the cumulative number of GdE and new/enlarging T2 lesions at 12 and 24 months involved a baseline-adjusted negative binomial regression with an “offset” employing the log of the relative exposure to adjust for early-terminated patients. The model included as covariates the number of enhancing lesions at baseline, and country or geographical region. In the case of new/enlarging T2 lesion analysis, the baseline T2 lesion volume was also added. The MRI secondary endpoints analyses were tested simultaneously with an overall type I error of 5%, using the Hochberg's step-up modification to Bonferroni's method to the two P-values obtained from the analyses of these two endpoints. The analysis of the brain atrophy endpoint involved a baseline-adjusted analysis of covariance (ANCOVA). The covariates were the number of GdE lesions at baseline and the country or region. The exploratory endpoints were all analyzed at a significance level of 5%.
# Secondary endpoints of the ALLEGRO trial included disease activity as measured by MRI, including counts of Gadolinium enhancing T1 lesions and new-T2 hyperintense lesions. […] Conventional MRI scans for new T1 hypointense lesions, and brain volume using SIENA were performed at baseline, 12 and 24 months. […]
# patients with RRMS = settings: pooled ALLEGRO and BRAVO, all patients, 0.6 mg QD vs PBO; cited from earlier work
structure (smiles),measurement,setting,value
"CCN(C(=O)c1c(O)c2c(Cl)cccc2n(C)c1=O)c1ccccc1 [Laquinimod, laquinimod]","BA at month 12, Effect (reduction in brain atrophy)","[1]; baseline to 12 months, vs placebo",53% reduction
same,"Hypointense T1 volume, BL to M 24",[1]; change baseline to month 24,7%
same,Hypointense T1 volume month 0,[1]; month 0 (baseline),2.65
same,T2 volume month 0,[1]; month 0 (baseline),7.27
same,% BV change by previous medications: naïve,[1]; post-hoc,−0.82%
same,GdE lesion free M 12,[1]; post-hoc,69%
same,"% BV change M 24, GdE = 0, Effect","[1]; post-hoc, vs placebo",30% reduction
same,"% BV change M 24, GdE > 0, Effect","[1]; post-hoc, vs placebo",37% reduction
same,"% BV change by previous medications: naïve, Effect","[1]; post-hoc, vs placebo",38% reduction
same,"% BV change by previous medications: not naive, Effect","[1]; post-hoc, vs placebo",23% reduction
same,"BA for pts with all scans: Change BL to M 12, Effect","[1]; post-hoc, vs placebo",60%
same,"BA for pts with all scans: Change BL to M 24, Effect","[1]; post-hoc, vs placebo",57%
same,"Cum # T1 GdE by previous medications: naïve, Effect","[1]; post-hoc, vs placebo",42% reduction
same,"Cum # T1 GdE by previous medications: not naive, Effect","[1]; post-hoc, vs placebo",32% reduction
same,"Cum New T2 by previous medications: naïve, Effect","[1]; post-hoc, vs placebo",33% reduction
same,"Cum New T2 by previous medications: not naive, Effect","[1]; post-hoc, vs placebo",24% reduction
same,"GdE counts M 12, Effect","[1]; post-hoc, vs placebo",36% reduction
same,"GdE counts M 24, Effect","[1]; post-hoc, vs placebo",39% reduction
same,"GdE lesion free M 12, Effect","[1]; post-hoc, vs placebo",49% odds
same,"GdE lesion free M 24, Effect","[1]; post-hoc, vs placebo",72% odds
same,"GdE volume M 12, Effect","[1]; post-hoc, vs placebo",4.5%
same,"GdE volume M 24, Effect","[1]; post-hoc, vs placebo",4.7%
same,"New-T1 Hypointense Lesions M 12, Effect","[1]; post-hoc, vs placebo",27% reduction
same,"New-T1 Hypointense Lesions M 24, Effect","[1]; post-hoc, vs placebo",32% reduction
same,"T1 Hypointense Lesion free M 12, Effect","[1]; post-hoc, vs placebo",28% odds
same,"T1 Hypointense Lesion free M 24, Effect","[1]; post-hoc, vs placebo",47% odds
same,"T1 hypointense by previous medications: naïve, Effect","[1]; post-hoc, vs placebo",28% reduction
same,"T1 hypointense by previous medications: not naive, Effect","[1]; post-hoc, vs placebo",25% reduction
same,"T2 lesion free M 12, Effect","[1]; post-hoc, vs placebo",39% odds
same,"T2 lesion free M 24, Effect","[1]; post-hoc, vs placebo",40% odds
same,"Average MTR of T2 visible lesions, difference",[1]; vs placebo,0.330
same,"Cumulative new Hypointense T1 months 12 + 24, Effect",[1]; vs placebo,27% reduction
same,"Cumulative number of GdE lesions at months 12 and 24, Effect",[1]; vs placebo,37 % reduction
same,"Cumulative number of new/enlarging T2 lesions at 12 and 24 months, Effect",[1]; vs placebo,30% reduction
same,"Hypointense T1 volume month 12, Effect",[1]; vs placebo,~1%
same,"Hypointense T1 volume month 24, Effect",[1]; vs placebo,~1%
same,"T2 volume month 12, Effect",[1]; vs placebo,5%
same,"T2 volume month 24, Effect",[1]; vs placebo,5%
same,"Cumulative number of new/enlarging T2 lesions at 12 and 24 months, Effect","[1]; vs placebo, listed as laquinimod",30 % reduction
same,Reduction in 6-month confirmed disability progression (CDP),patients with RRMS,46%
